Experimental data reported in patent US20210130549A1, “IPN hydrogel for preparation and application” (EASTING BIOTECHNOLOGY COMPANY LIMITED, priority 2019, published 2021).

Assay: Hydrophilic drug release from drug-containing IPN hydrogel in sustained-release solution (HPLC, 272 nm)
Assay type: physicochemical
Conditions: from release curve FIG. 4; drug-loaded IPN hydrogel; sampling 30 minutes to 72 hours
Experimental: The drug-containing hydrogel was placed in a sustained-release solution for drug release testing and taking the samples from sustained-release solution within a fixed time.
Taking the samples with fixed time and test releasing concentration. The sampling time is 30 minutes, 60 minutes, 90 minutes, 180 minutes, 8 hours, 24 hours, 48 hours, and 72 hours.
The subsequent drug concentration was analyzed by high performance liquid chromatography (HPLC). The water-based drug used caffeine for drug release, and the absorption wavelength of caffeine was 272 nm for measurement.

Cn1c(=O)c2c(ncn2C)n(C)c1=O [caffeine]
release amount of caffeine in water: ≥ 40%
